How the values were obtained:
HDAC8 = HDAC8 (Homo sapiens, UniProt Q9BY41); experiment: biochemical
DnaK-ABD [1] = target: T1, DnaK-ABD (Thermus thermophilus, UniProt Q56235); conditions: 150 mM 15NH4Cl, 5 mM MgCl2, 0.5 mM ADP, 50 mM phosphate, 1 mM DTT, pH 7.5; two sites; 15N-labelled compound
DnaK-ABD [2] = target: T1, DnaK-ABD; experiment: 1H, […] HSQC NMR of bound […]NH4+ (indirect); format: binding; conditions: 0.5 mM ADP added together with 50 mM phosphate; 150 mM 15NH4Cl, 5 mM MgCl2, 1 mM DTT, pH 7.5

T1 sequence (Q56235 1-381): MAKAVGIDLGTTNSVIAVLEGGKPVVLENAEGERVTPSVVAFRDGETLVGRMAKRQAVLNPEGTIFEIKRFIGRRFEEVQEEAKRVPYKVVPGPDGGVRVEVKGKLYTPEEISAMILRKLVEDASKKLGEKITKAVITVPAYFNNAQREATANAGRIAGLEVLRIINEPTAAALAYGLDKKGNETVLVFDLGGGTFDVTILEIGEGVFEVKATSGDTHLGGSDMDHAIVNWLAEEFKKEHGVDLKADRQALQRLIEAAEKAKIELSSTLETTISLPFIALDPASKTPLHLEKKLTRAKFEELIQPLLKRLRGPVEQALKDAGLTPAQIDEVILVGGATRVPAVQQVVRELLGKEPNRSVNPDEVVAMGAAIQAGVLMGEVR
Chain of HDAC8 (Q9BY41 whole entry): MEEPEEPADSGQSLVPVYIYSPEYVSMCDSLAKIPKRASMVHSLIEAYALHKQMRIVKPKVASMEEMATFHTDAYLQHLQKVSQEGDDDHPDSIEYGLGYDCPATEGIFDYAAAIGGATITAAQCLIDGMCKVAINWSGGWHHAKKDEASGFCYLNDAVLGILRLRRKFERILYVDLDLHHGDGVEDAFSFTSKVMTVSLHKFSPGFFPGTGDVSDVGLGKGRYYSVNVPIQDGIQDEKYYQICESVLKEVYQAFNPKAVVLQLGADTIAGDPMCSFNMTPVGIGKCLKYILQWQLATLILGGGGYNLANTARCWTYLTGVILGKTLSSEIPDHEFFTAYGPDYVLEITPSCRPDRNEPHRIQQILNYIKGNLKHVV

Row | Compound | Kd (HDAC8) [mM] | 1H,15N HSQC NMR and 15N-edited NOESY (DnaK-ABD [1]) | 1H,15N HSQC NMR of bound 15NH4+ (indirect) (DnaK-ABD [2])
1 | N [15NH4+] | 13 ± 8 | addition of ADP and Pi resulted in the appearance of two clear peaks | –
2 | Nc1ncnc2c1ncn2[C@@H]1O[C@H](COP(=O)(O)OP(=O)(O)O)[C@@H](O)[C@H]1O [ADP] | – | – | binding of ADP and Pi protects the ammonium protons from solvent exchange
